# Data taken from US20240285670A1, “THERAPEUTIC TREATMENT OF TUMORS BY BLOCKING THE HEME SYNTHESIS-EXPORT AXIS” (Università degli Studi di Torino, priority 2021, published 2024).
# How the values were obtained:
# [1] = test system: ALAS1; test: Western blot analysis of ALAS1 expression in SKCO1 cells; assay type: cell-based, human; details: 5 mM ALA for 16, 24 and 48 hours vs untreated
# Protocol: (A) Heme content in SHSY5Y cells non-treated (NT) or treated with 5 mM ALA for 15 hours. Values are expressed as pmol heme/mg protein. Data represent mean±SEM, n=3; *=P<0.05. (B, C) qRT-PCR analysis of the expression of ALAS1 (B) and FLVCR1a (C) in SHSY5Y cells non-treated (NT) or treated with 5 mM ALA for 15 hours. Transcript abundance, normalized to beta-actin mRNA expression, is expressed as a fold increase over a calibrator sample. Data represent mean±SEM, n=4. For statistical analyses, an unpaired Student's t-test was used; *p<0.05. (D) qRT-PCR analysis of the expression of ALAS1 in SKCO1 cells untreated (NT) or treated with 5 mM ALA for 24 hours. Transcript abundance, normalized to beta-actin mRNA expression, is expressed as a fold increase over a calibrator sample. Data represent mean±SEM, n=5. […] Band intensities were measured by densitometry and normalized to beta-actin expression. […] (F) Proliferation of SHSY5Y cells assessed by crystal violet staining at different time points (starting from the day after plating, named “day 0”). Treatment with 5 mM ALA occurred at “day 0” and cells were monitored until the end of the experiment without medium refresh. […] (G) SKCO1 cells viability measured by the CellTiter-Fluor Cell Viability Assay (Promega, Madison, WI USA, catalog n°G6080) at different time points, starting from the day after plating (named “day 0”), as a readout of cell proliferation. […]
# [2] = test system: SKCO1 cells; test: SKCO1 xenograft tumor model in NSG mice; assay type: in vivo
# Description: (A) Proliferation of Caco2 cells assessed by crystal violet staining at the indicated days; bar=1000 μm. […] Staining quantification is reported in the bar graph as percentage of crystal violet stained area. Data represent mean±SEM, n=4. For statistical analyses, a two-way analysis of variance was used, followed by the Bonferroni correction for multiple group comparisons; *=p<0.05, ***=p<0.001. (B) Caco2 cells viability the day of plating (day 0) and three days after plaiting (day 3). The measure is considered a readout of cell proliferation. […] Data represent mean±SEM, n=3 wells. For statistical analyses, a two-way analysis of variance was used, followed by the Bonferroni correction for multiple group comparisons; *=p<0.05, **=p<0.01. (C, D, E) Representative flow cytometric analyses of apoptosis in synchronized Caco2 (C), SKCO1 (D) and C80 (E) cells. […] Data represent mean±SEM, n=4 wells pooled from two independent experiments. […]
# For the SKCO1 xenograft model, 8-week-old NOD SCID gamma (NSG) male mice (The Jackson Laboratory, Bar Harbor, ME USA; NOD.Cg-Prkdc^scid Il2rg^tm1Wjl/SzJ, catalog n° 005557, RRID: IMSR_JAX:005557) were housed in a temperature-controlled, pathogen-free environment and used for experimentation. […] Tumor length (L) and width (W) were measured and tumor volume (mm^3) was calculated using the following formula: (L×W^2)/2. […]
Compound,ALAS1 protein levels [1],"tumor size (tumor volume) ([2]; subcutaneous injection of FLVCR1a-silenced vs scramble SKCO1 cells in NSG mice, 11 weeks)",tumor histology (hematoxylin and eosin) ([2]; tumors from FLVCR1a-silenced vs control SKCO1 cells in NSG mice)
"Cl.NCC(=O)CCC(=O)O [5-ALA, 5-Aminolevulinic acid hydrochloride]",decreased,–,–
"FLVCR1a shRNA: shRNA specifically down-regulating FLVCR1a without targeting FLVCR1b; pLKO.1 lentiviral clone TRCN0000059599, antisense SEQ ID No.: 2 (antisense TTGCTAATGATGCTGTACTGG; sense CCAGTACAGCATCATTAGCAA)",–,smaller tumors,"higher amount of stroma (mostly fibrous tissue) and, in general, lower cellularity"
